Laboratory results: patent US8133847B2, “Pyrido[2,3-B]pyrazine derivatives useful as herbicidal compounds” (Syngenta Limited, priority 2006, dated 2012)

Tests used:
Format in all cases: in vivo
[1] = tested on: Setaria faberi (SETFA); assay: Example B2 herbicidal action, post-emergence, pots in glasshouse; conditions: Application post-emergence, evaluated after 13 days (100=total damage to plant; 0=no damage to plant)
Procedure: (§1) Seeds of a variety of test species were sown in standard soil in pots. After 8 days cultivation (post-emergence) under controlled conditions in a glasshouse (at 24/16° C., day/night; 14 hours light; 65% humidity), the plants were sprayed with an aqueous spray solution derived from the formulation of the technical active ingredient in acetone/water (50:50) solution containing 0.5% Tween 20 (polyoxyethylene sorbitan monolaurate, CAS RN 9005-64-5). The test plants were then grown in a glasshouse under controlled conditions in a glasshouse (at 24/16° C., day/night; 14 hours light; 65% humidity) and watered twice daily. After 13 days, the test was evaluated (100=total damage to plant; 0=no damage to plant).

[2] = tested on: Ipomea hederaceae (IPOHE); assay: as above; conditions: Application post-emergence, evaluated after 13 days (100=total damage to plant; 0=no damage to plant)
Procedure: as §1

[3] = tested on: Solanum nigrum (SOLNI); assay: as above; conditions: Application post-emergence, evaluated after 13 days
Procedure: as §1

[4] = tested on: Echinochloa crusgalli (ECHCG); assay: as above; conditions: Application post-emergence, evaluated after 13 days (100=total damage to plant; 0=no damage to plant)
Procedure: as §1

[5] = tested on: Amaranthus retroflexus (AMARE); assay: as above; conditions: Application post-emergence, evaluated after 13 days (100=total damage to plant; 0=no damage to plant)
Procedure: as §1

[6] = tested on: Nasturtium officinale (NAAOF); assay: Example B1 herbicidal action, post-emergence, 96-cell seed trays, climatic chamber; parameters: scale not given here; conditions: Application post-emergence, 1000 mg/l spray equivalent to 1000 g/ha, evaluated after 9 days (100=total damage to plant, 0=no damage to plant)
Method in brief: (§2)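 Plants at 8–9 days post-sowing (23/17 °C, 13 h light, 50–60% humidity) sprayed post-emergence with 1000 mg/l active ingredient in 10% DMSO, equivalent to 1000 g/ha. Grown on at 24/19 °C, watered twice daily; damage scored after 9 days (0 = none, 100 = total).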

[7] = tested on: Stellaria media (STEME); assay: as above; conditions: Application post-emergence, 1000 mg/l spray equivalent to 1000 g/ha, evaluated after 9 days (100=total damage to plant, 0=no damage to plant)
Method in brief: as §2

[8] = tested on: Solanum nigrum (SOLNI); assay: as above; conditions: Application post-emergence, 1000 mg/l spray equivalent to 1000 g/ha, evaluated after 9 days (100=total damage to plant, 0=no damage to plant)
Method in brief: as §2

[9] = tested on: Amaranthus retroflexus (AMARE); assay: as above; conditions: Application post-emergence, 1000 mg/l spray equivalent to 1000 g/ha, evaluated after 9 days
Method in brief: as §2

| Compound | damage to plant, Setaria faberi (SETFA) [1] | damage to plant, Ipomea hederaceae (IPOHE) [2] | damage to plant, Solanum nigrum (SOLNI) [3] | damage to plant, Echinochloa crusgalli (ECHCG) [4] | damage to plant, Amaranthus retroflexus (AMARE) [5] | damage to plant, Nasturtium officinale (NAAOF) [6] | damage to plant, Stellaria media (STEME) [7] | damage to plant, Solanum nigrum (SOLNI) [8] | damage to plant, Amaranthus retroflexus (AMARE) [9] |
| --- | --- | --- | --- | --- | --- | --- | --- | --- | --- |
| CC(C)(C)C(=O)Oc1c(-c2ccccc2Br)c(=O)[nH]c2nccnc12 [Compound B51] | 6 | 0 | 7 | 3 | 3 | – | – | – | – |
| O=c1[nH]c2nccnc2c(O)c1-c1c(Cl)cc(OC(F)(F)F)cc1Cl [Compound A36] | 8 | 0 | 8 | 10 | 7 | – | – | – | – |
| Cc1ccc(C)c(-c2c(O)c3nccnc3[nH]c2=O)c1 [Compound A37] | 7 | 1 | 6 | 7 | 4 | – | – | – | – |
| CCn1c(=O)c(-c2cc(OC(F)(F)F)ccc2OC)c(OC(=O)C(C)C)c2nccnc21 [Compound C160] | 6 | 7 | 9 | 8 | 10 | – | – | – | – |
| Cn1c(=O)c(-c2cc(F)ccc2Cl)c(OC(=O)C(C)(C)C)c2nccnc21 [Compound C143] | 8 | 9 | 10 | 7 | 10 | – | – | – | – |
| CCn1c(=O)c(-c2cc(F)c(Cl)cc2Cl)c(OC(=O)C(C)(C)C)c2nccnc21 [Compound C153] | 1 | 5 | 8 | 1 | 9 | – | – | – | – |
| CCn1c(=O)c(-c2cc(OC(F)(F)F)ccc2OC)c(OC(=O)C(C)(C)C)c2nccnc21 [Compound C167] | 2 | 5 | 9 | 5 | 10 | – | – | – | – |
| CC(C)C(=O)Oc1c(-c2cc(F)ccc2Cl)c(=O)n(C)c2nccnc12 [Compound C142] | 7 | 9 | 10 | 8 | 10 | – | – | – | – |
| Cc1ccc(C)c(-c2c(OC(=O)C(C)C)c3nccnc3n(C)c2=O)c1 [Compound C133] | 4 | 3 | 9 | 6 | 9 | – | – | – | – |
| Cn1c(=O)c(-c2c(F)ccc(Br)c2Cl)c(OC(=O)C(C)(C)C)c2nccnc21 [Compound C145] | 0 | 6 | 9 | 1 | 7 | – | – | – | – |
| CCn1c(=O)c(-c2c(Cl)cc(C(F)(F)F)cc2Cl)c(OC(=O)C(C)(C)C)c2nccnc21 [Compound C129] | 6 | 9 | 10 | 4 | 10 | – | – | – | – |
| CCn1c(=O)c(-c2cc(C)ccc2C)c(OC(=O)C(C)(C)C)c2nccnc21 [Compound C135] | 0 | 0 | 10 | 2 | 8 | – | – | – | – |
| Cn1c(=O)c(-c2ccccc2Br)c(OC(=O)C(C)(C)C)c2nccnc21 [Compound C146] | 6 | 7 | 8 | 5 | 9 | – | – | – | – |
| CCn1c(=O)c(-c2c(F)ccc(Br)c2Cl)c(OC(=O)C(C)C)c2nccnc21 [Compound C154] | 0 | 9 | 10 | 3 | 10 | – | – | – | – |
| Cc1ccc(C)c(-c2c(OC(=O)C(C)(C)C)c3nccnc3n(C)c2=O)c1 [Compound C134] | 2 | 6 | 10 | 0 | 9 | – | – | – | – |
| Cn1c(=O)c(-c2ccc(C(F)(F)F)cc2[N+](=O)[O-])c(OC(=O)C(C)(C)C)c2nccnc21 [Compound C140] | 0 | 2 | 9 | 3 | 8 | – | – | – | – |
| CC(C)C(=O)Oc1c(-c2ccccc2OC(F)F)c(=O)n(C)c2nccnc12 [Compound C164] | 4 | 8 | 8 | 3 | 9 | – | – | – | – |
| CC(C)(C)C(=O)Oc1c(-c2c(F)ccc(Br)c2Cl)c(=O)[nH]c2nccnc12 [Compound B49] | 7 | 8 | 9 | 3 | 10 | – | – | – | – |
| CC(C)C(=O)Oc1c(-c2cc(F)c(Cl)cc2Cl)c(=O)[nH]c2nccnc12 [Compound B47] | 4 | 1 | 3 | 3 | 2 | – | – | – | – |
| CCn1c(=O)c(-c2c(Cl)cc(OC(F)(F)F)cc2Cl)c(OC(=O)C(C)(C)C)c2nccnc21 [Compound C139] | 10 | 10 | 10 | 10 | 10 | – | – | – | – |
| CC(C)(C)C(=O)Oc1c(-c2ccc(C(F)(F)F)cc2[N+](=O)[O-])c(=O)[nH]c2nccnc12 [Compound B44] | 0 | – | 3 | 3 | 7 | – | – | – | – |
| Cn1c(=O)c(-c2ccccc2I)c(OC(=O)C(C)(C)C)c2nccnc21 [Compound C136] | 8 | – | 10 | 9 | 9 | – | – | – | – |
| CC(C)C(=O)Oc1c(-c2cc(Cl)cc(Cl)c2Cl)c(=O)n(C)c2nccnc12 [Compound C68] | – | – | – | – | – | 5 | 5 | 0 | 0 |
| Cn1c(=O)c(-c2c(F)ccc(F)c2Cl)c(OC(=O)c2cccs2)c2nccnc21 [Compound C91] | – | – | – | – | – | 4 | 8 | 8 | 7 |
